The values that follow come from patent publication US8524897B2, “Crystalline oxazine derivative” (Novartis AG, priority 2011, dated 2013).

pIC50: −log10 of the molar value.

For data set [1], the system named is amyloid peptide 1-40 release from Chinese hamster ovary cells transfected with the human gene for amyloid precursor protein. In words: Test 4: Inhibition of cellular release of amyloid peptide 1-40. It is filed as cell-based. Particulars: mean IC50, Test 4, CHO cells with human APP, 24 hours; read-out: Amyloid-β1-40 release IC50. The method, then: (§1) Test 4: Inhibition of Cellular Release of Amyloid Peptide 1-40
(§2) Chinese hamster ovary cells are transfected with the human gene for amyloid precursor protein. The cells are plated at a density of 8000 cells/well into 96-well microtiter plates and cultivated for 24 hours in DMEM cell culture medium containing 10% FCS. The test compound is added to the cells at various concentrations, and the cells are cultivated for 24 hours in the presence of the test compound. The supernatants are collected, and the concentration of amyloid peptide 1-40 is determined using state of the art immunoassay techniques, for example sandwich ELISA, homogenous time-resolved fluorescence (HTRF) immunoassay, or electro-chemiluminescence immunoassay.

Data set [2] is described as follows: Chemical stability of amorphous versus crystalline material exposed to high temperature/humidity for one week (UPLC purity, solid state). Format: physicochemical. On the procedure:
Chemical stability of amorphous versus crystalline 5-cyano-3-methyl-pyridine-2-carboxylic acid [3-((3R,6R)-5-amino-3,6-dimethyl-6-trifluoromethyl-3,6-dihydro-2H-[1,4]oxazin-3-yl)-4-fluoro-phenyl]-amide when exposed to high temperature/humidity for one week
The stability of amorphous versus crystalline 5-cyano-3-methyl-pyridine-2-carboxylic acid [3-((3R,6R)-5-amino-3,6-dimethyl-6-trifluoromethyl-3,6-dihydro-2H-[1,4]oxazin-3-yl)-4-fluoro-phenyl]-amide was tested by exposing the amorphous or crystalline material to high temperature and/or humidity for one week. After storage at high temperature and/or humidity, bulk amorphous or crystalline material was sampled and dissolved in acetonitrile and the purity analysed in a Aquity UPLC from Waters using the following conditions: […]

The nature of data set [3]: Test 4: Inhibition of cellular release of amyloid peptide 1-40. Format: cell-based, Chinese hamster. Particulars: Cricetulus griseus, CHO, 24 h, mean IC50, Test 4, CHO cells with human APP, read-out: Amyloid-β1-40 release IC50. On the procedure:
as §1, §2

Take `Cc1cc(C#N)cnc1C(=O)Nc1ccc(F)c([C@]2(C)CO[C@@](C)(C(F)(F)F)C(N)=N2)c1` [Example 1 Crystalline, 5-cyano-3-methyl-pyridine-2-carboxylic acid [3-((3R,6R)-5-amino-3,6-dimethyl-6-trifluoromethyl-3,6-dihydro-2H-[1,4]oxazin-3-yl)-4-fluoro-phenyl]-amide]: the pIC50 in data set [1] was 8.70. Moreover, the Purity-% in data set [2] (40° C./75% RH, one week) is on record as 98.23%; in data set [2] (50° C., one week, listed as Crystalline), 98.05%; in data set [2] (80° C., one week, listed as Crystalline), 98.01%; in data set [2] (RT, 0 (start), listed as Crystalline), 98.7%. Further, the “Solid State” value in data set [2] (40° C./75% RH, one week) was “Crystalline”; in data set [2] (50° C., one week), “Crystalline”; in data set [2] (80° C., one week, Low = lower peaks when measured by XRPD) it was “Crystalline,”; in data set [2] (RT, 0 (start)), “Crystalline”.

With `Cc1cc(C#N)cnc1C(=O)Nc1ccc(F)c([C@]2(C)CO[C@@](C)(C(F)(F)F)C(N)=N2)c1` [Example 1 Amorphous, 5-cyano-3-methyl-pyridine-2-carboxylic acid [3-((3R,6R)-5-amino-3,6-dimethyl-6-trifluoromethyl-3,6-dihydro-2H-[1,4]oxazin-3-yl)-4-fluoro-phenyl]-amide], the negative logarithm of the IC50 (pIC50) in data set [3] is 8.59. Besides, the Purity-% turned out to be 91.6% in data set [2] (50° C., one week, listed as Amorphous); 55.8% in data set [2] (80° C., one week, listed as Amorphous); 96.4% in data set [2] (RT, 0 (start), listed as Amorphous); 96.3% in data set [2] (RT, one week).
